Measured values published in PMC5622171 (Nature Communications, 2017).
“Also recorded” adds a separate entry of the source.

Experiments:
LXRβ = LXRβ (Homo sapiens, UniProt P55055); assay: GeneBLAzer NR-UAS-bla HEK 293 T assay; assay type: cell-based; details: antagonistic mode; only at concentrations higher than 5 µM
Description: The assays were performed in accordance with the manufacturer’s instructions, with minor modifications as reported previously[48]–[50]. Briefly, positive control (as described for each assay), DMSO, and dilutions of test chemicals either alone (for agonistic assays) or in combination with an approximately EC80 concentration of a specific agonist (for antagonistic assays) were incubated with an optimized number of cells for each assay in wells of black 384-well tissue culture-treated clear-bottom plates with 30 µl of the respective assay medium in a 37 °C cell-culture incubator. A group of wells containing assay medium and DMSO, but no cells, served as a background control. The final DMSO concentration was 0.5% for all wells.

CYP3A4 = CYP3A4 protein levels in primary human hepatocytes (western blot); assay type: cell-based
Description: (§1) Cells were rinsed once with cold PBS then lysed in RIPA lysis buffer (Thermo Fisher Scientific) containing protease inhibitor (Roche). Mouse liver samples were homogenized in 500 μl of cold RIPA lysis buffer in a Bullet Blender Blue homogenizer (Next Advance, Averill Park, NY). Then, 25 μg of total protein lysates were loaded onto NuPAGE 4%–12% Bis-Tris gels (Invitrogen) with NuPAGE MES SDS running buffer (Invitrogen). The proteins were transferred from the gel to a nitrocellulose membrane by using the iBlot gel-transfer system (Invitrogen). The membrane was then blocked for 1 h with Odyssey Blocking Buffer (LI-COR Biosciences, Lincoln, NE) and probed with mouse monoclonal antibodies against CYP3A4 (K03; stock concentration: 2.5 mg ml^−1, diluted 1:5000)[51], MDR1 (D-11; Cat. No. sc-55510, Santa Cruz Biotechnology, Santa Cruz, CA; stock concentration: 0.2 mg ml^−1, diluted 1:1500), hPXR (H-11; Cat. No. sc-48340, Santa Cruz Biotechnology; stock concentration: 0.2 mg ml^−1, diluted 1:400), mouse Cyp3a (Cat. No. MAB10041, Millipore, Temecula, CA; Lot No. 1957980, diluted 1:1000), or β-actin (Cat. No. A5441, Sigma; Lot No. 043M4840V, diluted 1:5000). […] The relative intensity of each protein band was then determined by normalizing the intensity of each protein band to that of actin. […]

MDR1 in LS174T cells = assay: MDR1 protein levels (western blot); assay type: cell-based, human; details: 10 μM SPA70, 1.6 μM RIF, 72 h
Description: as §1

MDR1 in LS180 cells = assay: MDR1 protein levels (western blot); assay type: cell-based, human; details: 10 μM SPA70, 1.6 μM RIF, 72 h
Description: as §1

hPXR = assay: Liver Cyp3a11 mRNA and protein in hPXR transgenic mice; assay type: in vivo, mouse; details: hPXR humanized transgenic mice, SPA70 200 mg kg−1, RIF 10 mg kg−1, 72 h
Description: Cells were rinsed once with cold PBS then lysed in RIPA lysis buffer (Thermo Fisher Scientific) containing protease inhibitor (Roche). Mouse liver samples were homogenized in 500 μl of cold RIPA lysis buffer in a Bullet Blender Blue homogenizer (Next Advance, Averill Park, NY). Then, 25 μg of total protein lysates were loaded onto NuPAGE 4%–12% Bis-Tris gels (Invitrogen) with NuPAGE MES SDS running buffer (Invitrogen). The proteins were transferred from the gel to a nitrocellulose membrane by using the iBlot gel-transfer system (Invitrogen). […] The relative intensity of each protein band was then determined by normalizing the intensity of each protein band to that of actin. […]
The method used for RNA extraction and polymerase chain reaction with reverse transcription (RT-PCR) has been described previously. […] Quantitative RT-PCR was performed in accordance with the manufacturer’s protocol by using TaqMan gene expression assays (Thermo Fisher Scientific) specific for the hPXR and Cyp3a11 genes, with GAPDH or 18s rRNA as the reference gene, in an ABI 7900HT Fast Real-Time PCR System (Thermo Fisher Scientific). […] The comparative threshold (Ct) method was used for the relative quantification of gene expression by the following formulae: ΔCt = Ct (test gene) − Ct (GAPDH); ΔΔCt (test gene) = ΔCt (test gene in treatment group) − ΔCt (test gene in vehicle control group). […]

hPXR with SRC-1 = target: T1, hPXR with SRC-1 (Homo sapiens, UniProt O75469); assay: Mammalian two-hybrid assay; assay type: cell-based; details: LS180 cells; SPA70 10 µM, SJB7 4 µM
T1 construct: expressed in transfected cells; host or cells: LS180
T1 sequence (O75469 whole entry): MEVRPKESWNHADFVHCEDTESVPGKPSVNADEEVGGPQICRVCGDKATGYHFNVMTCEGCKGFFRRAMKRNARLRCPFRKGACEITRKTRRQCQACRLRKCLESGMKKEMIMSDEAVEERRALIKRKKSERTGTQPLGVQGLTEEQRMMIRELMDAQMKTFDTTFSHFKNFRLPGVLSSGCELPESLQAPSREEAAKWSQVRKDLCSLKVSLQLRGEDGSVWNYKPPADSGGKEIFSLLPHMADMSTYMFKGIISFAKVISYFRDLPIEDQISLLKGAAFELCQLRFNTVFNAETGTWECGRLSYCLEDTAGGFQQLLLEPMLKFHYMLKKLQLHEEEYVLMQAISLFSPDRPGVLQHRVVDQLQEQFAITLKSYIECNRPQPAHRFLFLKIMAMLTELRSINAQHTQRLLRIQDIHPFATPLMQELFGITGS
T1 sequence (Q15788 whole entry partner): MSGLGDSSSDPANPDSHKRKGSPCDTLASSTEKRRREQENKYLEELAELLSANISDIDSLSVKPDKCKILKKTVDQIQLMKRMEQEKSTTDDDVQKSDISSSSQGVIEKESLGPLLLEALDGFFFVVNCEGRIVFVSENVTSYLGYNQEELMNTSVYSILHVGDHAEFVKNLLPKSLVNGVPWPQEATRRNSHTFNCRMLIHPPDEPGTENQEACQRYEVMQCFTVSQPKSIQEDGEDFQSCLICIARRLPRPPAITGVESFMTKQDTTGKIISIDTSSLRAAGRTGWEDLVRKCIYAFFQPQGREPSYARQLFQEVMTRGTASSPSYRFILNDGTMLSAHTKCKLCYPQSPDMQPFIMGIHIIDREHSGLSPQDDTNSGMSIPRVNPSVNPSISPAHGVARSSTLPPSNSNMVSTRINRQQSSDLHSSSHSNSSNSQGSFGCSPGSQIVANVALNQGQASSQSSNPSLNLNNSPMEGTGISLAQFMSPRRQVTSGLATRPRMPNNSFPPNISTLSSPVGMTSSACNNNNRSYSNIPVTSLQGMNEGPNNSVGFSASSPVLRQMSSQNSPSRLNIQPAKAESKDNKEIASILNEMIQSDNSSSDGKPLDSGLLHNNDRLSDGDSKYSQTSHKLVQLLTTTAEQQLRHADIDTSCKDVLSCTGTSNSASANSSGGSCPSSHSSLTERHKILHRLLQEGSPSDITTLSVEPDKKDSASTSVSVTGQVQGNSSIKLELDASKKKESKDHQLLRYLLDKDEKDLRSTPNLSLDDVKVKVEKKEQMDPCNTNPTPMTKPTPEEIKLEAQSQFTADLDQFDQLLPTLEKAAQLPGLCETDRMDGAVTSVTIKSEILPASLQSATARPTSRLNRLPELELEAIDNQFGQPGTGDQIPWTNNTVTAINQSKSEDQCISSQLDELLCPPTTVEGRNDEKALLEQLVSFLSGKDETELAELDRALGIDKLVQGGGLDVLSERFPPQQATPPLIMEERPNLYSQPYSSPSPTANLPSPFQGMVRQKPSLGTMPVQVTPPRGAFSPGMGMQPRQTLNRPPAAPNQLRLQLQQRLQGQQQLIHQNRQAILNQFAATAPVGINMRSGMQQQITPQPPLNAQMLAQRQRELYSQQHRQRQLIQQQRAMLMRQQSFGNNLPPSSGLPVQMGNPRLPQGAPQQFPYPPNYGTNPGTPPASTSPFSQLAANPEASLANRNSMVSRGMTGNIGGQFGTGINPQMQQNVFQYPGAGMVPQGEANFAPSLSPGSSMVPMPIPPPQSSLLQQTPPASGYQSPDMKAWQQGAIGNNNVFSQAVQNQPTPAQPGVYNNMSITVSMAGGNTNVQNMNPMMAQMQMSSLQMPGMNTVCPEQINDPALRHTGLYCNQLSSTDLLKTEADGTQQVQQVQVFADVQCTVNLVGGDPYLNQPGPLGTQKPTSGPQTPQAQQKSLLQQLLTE
From the text: (§2) The mammalian two-hybrid assay method has been described previously. Briefly, the CheckMate mammalian two-hybrid system (Promega) was used to evaluate the association between hPXR and its co-regulators. LS180 cells were co-transfected with an hPXR plasmid (pACT-hPXR, pACT-hPXRM429A or pACT-hPXRF429A), a coregulator plasmid (pBIND-SRC-1, pBIND-TIF2, pBIND-SMRTτ [amino acids 2077–2471], or pBIND-mNCoR [amino acids 1958–2401]), and a GAL4 firefly luciferase reporter plasmid (pG5-luc). The Renilla luciferase is constitutively expressed from the pBIND vector, and served as an internal transfection control. The activity of the firefly and Renilla luciferase was measured by using the Dual-Glo Luciferase Assay (Promega), and the relative luciferase activity of pG5-luc was determined by normalizing the activity of firefly luciferase to that of Renilla luciferase.

hPXR with TIF2 = target: T2, hPXR with TIF2 (Homo sapiens, UniProt O75469); assay: Mammalian two-hybrid assay; assay type: cell-based; details: LS180 cells; SPA70 10 µM, SJB7 4 µM
T2 construct: expressed in transfected cells; host or cells: LS180
T2 sequence (O75469 whole entry): as the sequence (O75469 whole entry) above
T2 sequence (Q15596 whole entry partner): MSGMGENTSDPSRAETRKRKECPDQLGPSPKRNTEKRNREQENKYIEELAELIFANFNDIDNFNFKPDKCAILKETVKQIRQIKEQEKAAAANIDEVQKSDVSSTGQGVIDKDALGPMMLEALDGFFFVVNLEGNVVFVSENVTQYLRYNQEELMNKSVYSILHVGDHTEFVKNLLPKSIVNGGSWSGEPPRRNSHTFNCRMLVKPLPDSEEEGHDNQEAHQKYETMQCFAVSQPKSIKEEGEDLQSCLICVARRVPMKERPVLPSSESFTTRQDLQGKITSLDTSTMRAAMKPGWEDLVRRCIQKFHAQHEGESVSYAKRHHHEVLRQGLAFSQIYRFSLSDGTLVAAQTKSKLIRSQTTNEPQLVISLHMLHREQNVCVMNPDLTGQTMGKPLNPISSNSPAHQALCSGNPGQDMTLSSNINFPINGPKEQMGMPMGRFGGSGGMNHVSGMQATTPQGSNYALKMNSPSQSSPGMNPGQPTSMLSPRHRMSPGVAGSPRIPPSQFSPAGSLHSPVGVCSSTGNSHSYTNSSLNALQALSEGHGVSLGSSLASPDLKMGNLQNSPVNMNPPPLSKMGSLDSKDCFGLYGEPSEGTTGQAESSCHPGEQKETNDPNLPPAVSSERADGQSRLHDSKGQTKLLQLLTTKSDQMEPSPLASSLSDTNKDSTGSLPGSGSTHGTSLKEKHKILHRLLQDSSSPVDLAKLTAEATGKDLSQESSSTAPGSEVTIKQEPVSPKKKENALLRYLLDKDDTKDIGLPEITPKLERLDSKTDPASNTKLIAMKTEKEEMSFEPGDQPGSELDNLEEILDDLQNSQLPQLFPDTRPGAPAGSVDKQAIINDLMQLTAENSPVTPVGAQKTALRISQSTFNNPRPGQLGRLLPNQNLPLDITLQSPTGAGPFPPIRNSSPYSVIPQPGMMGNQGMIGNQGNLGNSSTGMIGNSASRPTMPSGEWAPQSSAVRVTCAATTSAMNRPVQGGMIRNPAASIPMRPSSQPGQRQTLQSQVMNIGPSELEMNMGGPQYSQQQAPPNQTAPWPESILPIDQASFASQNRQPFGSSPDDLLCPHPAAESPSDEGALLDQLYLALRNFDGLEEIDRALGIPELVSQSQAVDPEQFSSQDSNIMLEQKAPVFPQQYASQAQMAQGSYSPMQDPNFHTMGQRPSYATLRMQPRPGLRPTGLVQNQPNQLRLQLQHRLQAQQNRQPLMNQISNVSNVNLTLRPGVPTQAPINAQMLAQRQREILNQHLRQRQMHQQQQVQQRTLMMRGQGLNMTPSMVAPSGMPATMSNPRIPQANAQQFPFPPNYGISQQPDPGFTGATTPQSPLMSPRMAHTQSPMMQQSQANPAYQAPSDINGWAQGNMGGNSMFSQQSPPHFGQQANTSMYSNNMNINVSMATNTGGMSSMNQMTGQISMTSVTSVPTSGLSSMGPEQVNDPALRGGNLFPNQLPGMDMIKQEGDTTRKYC
From the text: as §2

LXRβ, sequence (P55055 222-460 limits assumed): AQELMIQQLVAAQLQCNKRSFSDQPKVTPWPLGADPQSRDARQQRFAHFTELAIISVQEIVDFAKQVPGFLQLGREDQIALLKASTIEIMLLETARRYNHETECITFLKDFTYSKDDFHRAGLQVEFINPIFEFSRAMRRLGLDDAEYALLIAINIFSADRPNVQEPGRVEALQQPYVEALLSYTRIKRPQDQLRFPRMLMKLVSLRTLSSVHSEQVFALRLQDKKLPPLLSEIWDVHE

COc1ccc(OC)c(-n2nnc(S(=O)(=O)c3ccc(C(C)(C)C)cc3)c2C)c1 [SPA70]
Effect on agonistic activity of T0901317 on LXRβ (LXRβ): weakly promoted the agonistic effect of T0901317 on LXRβ; also recorded: marginally increased the agonistic activity of T0901317 on LXRβ | Effect on CYP3A4 induction by SR12813 and T090137 (CYP3A4; 2.5 μM SPA70, 0.1 μM SR12813 or 0.03 μM T090137, 48 h): able to block the CYP3A4-inducing effect | Effect on CYP3A4 induction by rifampicin (CYP3A4; 2.5 μM SPA70, 1 μM rifampicin, 48 h): substantially blocked | Effect on rifampicin induction of MDR1 (MDR1 in LS174T cells): able to block rifampicin induction of MDR1 | Effect on rifampicin induction of MDR1 (MDR1 in LS180 cells): able to block rifampicin induction of MDR1 | Effect on rifampicin-induced expression of Cyp3a11 (mRNA and protein) (hPXR): effectively blocked the rifampicin-induced expression of Cyp3a11 | Increase of association of hPXR with SRC-1 (hPXR with SRC-1): did not affect | Increase of association of hPXR with TIF2 (hPXR with TIF2): did not affect
